# Assay results reported in patent publication US7915270B2, “Oxazole ketones as modulators of fatty acid amide hydrolase” (The Scripps Research Institute, priority 2006, dated 2011).
# Test system: not listed separately
# Test: Pharmacokinetic testing, intravenous bolus in rats
# Assay type: in vivo
# Conditions: rat, plasma, 2 mg/kg, male Sprague Dawley rats, 1 mg/mL in 2 mL/kg
# Protocol: For each test compound, two male Sprague Dawley Rats (Charles River Laboratories; approx. 300 g body weight) were used. Animals were individually housed, provided food and water ad libitum, and were maintained on a 12 h light and dark cycle. Animals received from the vendor were surgically cannulated by the vendor with right jugular vein and left carotid artery catheters. Animals were acclimatized for at least 5 days after receipt from the vendor prior to investigations.
# Animals received a bolus intravenous dose of the test compound at a dose of 1 mg/mL in a volume of 2 mL/kg via the right jugular vein catheter. The intravenous dosing solution was prepared in 55% pharmasolve, 20% cremophor, and […] physiological saline, or 100% saline adjusted to pH 8.0.
# Following intravenous administration, blood was collected (sampled 0.35 mL per time point from the left carotid artery catheter) at 0.083, 0.25, 0.5, 1, 2, 4, and 6 h post-dose. Blood was collected into tubes containing EDTA and stored at 4° C. for not more than 2 h. The samples were centrifuged at 10,000 rpm in a micro-centrifuge for 5 min to obtain a plasma fraction. The plasma was stored at between −20 and −80° C. until processed for analysis. These samples were analyzed by LC-MS/MS to determine the plasma level of the compound.
# Plasma level vs. time plots were created and WinNonlin (Pharsight Corp.) was used to analyze the data. A non-compartmental pharmacokinetic model was used to determine the pharmacokinetic parameters, including clearance, volume of distribution (Vd), and half-life (t1/2).
Vd,clearance,half-life,SMILES
27.3 L/kg,98.3 mL/min/kg,3.23 h,"O=C(CCCCCCc1ccccc1)c1ncc(-c2ccccn2)o1 [Comp. Ex. 1, 7-Phenyl-1-(5-pyridin-2-yl-oxazol-2-yl)-heptan-1-one, reference compound]"
22.9 L/kg,63.3 mL/min/kg,3.49 h,"O=C(CCCCCCc1ccccc1)c1ncc(-c2ccco2)o1 [Comp. Ex. 2, 1-(5-Furan-2-yl-oxazol-2-yl)-7-phenyl-heptan-1-one, reference compound]"

# Test system: neuropathic pain
# Test: not given
# Conditions: rats; WO 02/087569; cited from earlier work
row,SMILES,analgesic effect in the Chung spinal nerve ligation model
1,Cc1nc(-c2ccccc2)c(-c2ccccc2)n1CCCCCCNC(=O)Oc1ccccc1F [BMS-1],analgesic effect

# Test system: thermal nociception
# Test: not given
# Conditions: rats; WO 04/033652; cited from earlier work
row,SMILES,analgesic activity in the hot plate test
1,O=C(CCCCCCc1ccccc1)c1ncc(-c2ccccn2)o1 [OL-135],analgesic activity

# Target: T1, FAAH (Rattus norvegicus, UniProt P97612)
# T1 sequence (P97612 1-579): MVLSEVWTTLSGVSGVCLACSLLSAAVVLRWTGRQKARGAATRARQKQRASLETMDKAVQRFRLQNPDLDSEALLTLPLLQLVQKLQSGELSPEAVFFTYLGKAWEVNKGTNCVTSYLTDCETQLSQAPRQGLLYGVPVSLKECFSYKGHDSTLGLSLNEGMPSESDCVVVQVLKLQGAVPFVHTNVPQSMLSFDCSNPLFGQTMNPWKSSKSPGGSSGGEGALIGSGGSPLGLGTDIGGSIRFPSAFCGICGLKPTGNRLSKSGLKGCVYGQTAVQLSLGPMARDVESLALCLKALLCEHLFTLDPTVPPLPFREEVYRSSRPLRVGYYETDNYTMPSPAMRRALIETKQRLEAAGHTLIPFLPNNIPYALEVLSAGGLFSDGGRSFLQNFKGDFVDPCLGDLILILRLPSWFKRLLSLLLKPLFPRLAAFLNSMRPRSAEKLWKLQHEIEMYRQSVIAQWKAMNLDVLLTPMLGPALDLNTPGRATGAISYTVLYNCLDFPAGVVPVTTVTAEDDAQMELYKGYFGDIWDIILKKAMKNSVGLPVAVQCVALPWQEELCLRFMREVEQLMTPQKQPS
# Test: Assay Method 1A: FAAH enzyme assay, 14C-oleamide hydrolysis, solubilized liver plasma membrane extract;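 further: ki obtained by Dixon analysis, taking the x-intercept of inhibitor concentration versus reciprocal rate plots at fixed substrate level and correcting for substrate concentration relative to Km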
# Conditions: not given
row,Ki,SMILES
1,750 nM,"Nc1ccccc1-c1cnc(C(=O)CCCCCCc2ccccc2)o1 [Example 27, 1-(5-(2-Aminophenyl)oxazol-2-yl)-7-phenylheptan-1-one]"
2,15 nM,"O=C(O)c1ccc(-c2cnc(C(=O)CCCCCCc3ccccc3)o2)o1 [Example 56, 5-(2-(7-Phenylheptanoyl)oxazol-5-yl)furan-2-carboxylic acid]"

# Test system: acute thermal nociception
# Test: not given
# Conditions: rats; WO 02/087569; cited from earlier work
row,SMILES,analgesic effect in the Hargraves test
1,Cc1nc(-c2ccccc2)c(-c2ccccc2)n1CCCCCCNC(=O)Oc1ccccc1F [BMS-1],analgesic effect

# Target: T2, Rat FAAH (Rattus norvegicus, UniProt P97612)
# T2 construct: expressed in transfected cells
# T2 sequence (P97612 1-579): T1 sequence (P97612 1-579)
# Test: Assay Method 2: FAAH assay, 3H-anandamide hydrolysis in cell homogenate (SK-N-MC cells transfected with rat FAAH)
# Assay type: biochemical
# Conditions: 3H-AEA 80 nM, rt 1 h, pH 9
# Protocol: A. Transfection of Cells with Rat FAAH
# (§1) A 10-cm tissue culture dish with a confluent monolayer of SK—N-MC cells was split 2 days (d) prior to transfection. Using sterile technique, the media was removed and the cells were detached from the dish by the addition of trypsin. One fifth of the cells were then placed onto a new 10-cm dish. Cells were grown in a 37° C. incubator with 5% CO2 in Minimal Essential Media Eagle with 10% Fetal Bovine Serum. After 2 d, cells were approximately 80% confluent. These cells were removed from the dish with trypsin and pelleted in a clinical centrifuge. The pellet was re-suspended in 400 μL complete media and transferred to an electroporation cuvette with a 0.4 cm gap between the electrodes. Supercoiled rat FAAH cDNA (1 μg) was added to the cells and mixed. The voltage for the electroporation was set at 0.25 kV, and the capacitance was set at 960 μF. After electroporation, the cells were diluted into complete media (10 mL) and plated onto four 10-cm dishes. Because of the variability in the efficiency of electroporation, four different concentrations of cells were plated. The ratios used were 1:20, 1:10, and 1:5, with the remainder of the cells being added to the fourth dish. The cells were allowed to recover for 24 h before adding the selection media (complete media with 600 μg/mL G418). After 10 d, dishes were analyzed for surviving colonies of cells. Dishes with well-isolated colonies were used. Cells from individual colonies were isolated and tested.
# The assay mixture consisted of 50 μL of the cell homogenate, 10 μL of the test compound, and 40 μL of anandamide [1-^3H-ethanolamine] (^3H-AEA, Perkin-Elmer, 10.3 Ci/mmol), which was added last, for a final tracer concentration of 80 nM. The reaction mixture was incubated at rt for 1 h. During the incubation, 96-well Multiscreen filter plates (catalog number MAFCNOB50; Millipore, Bedford, Mass., USA) were loaded with 25 μL of activated charcoal (Multiscreen column loader, catalog number MACL09625, Millipore) and washed once with 100 μL of MeOH. […] After the 1 h incubation, 60 μL of the reaction mixture were transferred to the charcoal plates, which were then assembled on top of the DYNEX plates using Centrifuge Alignment Frames (catalog number MACF09604, Millipore). The unbound labeled ethanolamine was centrifuged through to the bottom plate (5 min at 2000 rpm), which was preloaded with the scintillant, as described above. The plates were sealed and left at rt for 1 h before counting on a Hewlett Packard TopCount.
row,IC50,SMILES
1,4000 nM,"Nc1ccccc1-c1cnc(C(=O)CCCCCCc2ccccc2)o1 [Example 27, 1-(5-(2-Aminophenyl)oxazol-2-yl)-7-phenylheptan-1-one]"
2,2 nM,"O=C(O)c1ccc(-c2cnc(C(=O)CCCCCCc3ccccc3)o2)o1 [Example 56, 5-(2-(7-Phenylheptanoyl)oxazol-5-yl)furan-2-carboxylic acid]"

# Target: T3, FAAH (Homo sapiens, UniProt O00519)
# T3 sequence (O00519 1-579): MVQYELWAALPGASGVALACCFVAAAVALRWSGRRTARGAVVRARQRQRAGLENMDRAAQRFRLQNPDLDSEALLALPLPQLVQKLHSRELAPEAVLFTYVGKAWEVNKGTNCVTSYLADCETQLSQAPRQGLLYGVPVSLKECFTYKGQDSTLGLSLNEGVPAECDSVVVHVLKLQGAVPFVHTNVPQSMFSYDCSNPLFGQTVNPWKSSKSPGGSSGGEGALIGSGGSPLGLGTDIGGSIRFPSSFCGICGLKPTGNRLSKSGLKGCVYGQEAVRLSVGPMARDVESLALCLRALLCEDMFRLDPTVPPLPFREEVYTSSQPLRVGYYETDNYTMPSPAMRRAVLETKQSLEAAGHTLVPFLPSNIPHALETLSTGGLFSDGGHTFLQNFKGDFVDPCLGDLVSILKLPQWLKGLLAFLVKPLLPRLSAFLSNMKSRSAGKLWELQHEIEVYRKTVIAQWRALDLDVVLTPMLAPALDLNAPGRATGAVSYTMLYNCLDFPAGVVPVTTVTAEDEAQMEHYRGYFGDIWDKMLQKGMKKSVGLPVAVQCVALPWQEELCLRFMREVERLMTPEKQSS
# Test: Assay Method 1B: FAAH assay, 3H-anandamide hydrolysis in cell homogenate (T84 or SK-N-MC cells transfected with human FAAH)
# Assay type: biochemical
# Parameters: expressed in transfected cells
# Conditions: 3H-AEA 80 nM, rt 1 h, pH 9
# Protocol: as §1, with “Transfection of Cells with Human FAAH A 10-cm” for “A 10-cm”, “electrodes. Supercoiled human FAAH cDNA” for “electrodes. Supercoiled rat FAAH cDNA”, “and tested. […] The reaction mixture was incubated at rt for 1 h. During the incubation, 96-well Multiscreen filter plates (catalog number MAFCNOB50; Millipore, Bedford, Mass., USA) were loaded with 25 μL of activated charcoal (Multiscreen column loader, catalog number MACL09625, Millipore) and washed once with 100 μL of MeOH. Also during the incubation, 96-well DYNEX MicroLite plates (catalog number NL510410) were loaded with 100 μL of MicroScint40 (catalog number 6013641, Packard Bioscience, Meriden, Conn., USA). After the 1 h incubation, 60 μL of the reaction mixture were transferred to the charcoal plates, which were then assembled on top of the DYNEX plates using Centrifuge Alignment Frames (catalog number MACF09604, Millipore). The unbound labeled ethanolamine was centrifuged through to the bottom plate (5 min at 2000 rpm), which was preloaded with the scintillant, as described above. The plates were sealed and left at rt for 1 h before counting on a Hewlett Packard TopCount.” for “and tested.”
row,IC50,SMILES
1,1000 nM,"Nc1ccccc1-c1cnc(C(=O)CCCCCCc2ccccc2)o1 [Example 27, 1-(5-(2-Aminophenyl)oxazol-2-yl)-7-phenylheptan-1-one]"
2,0.8 nM,"O=C(O)c1ccc(-c2cnc(C(=O)CCCCCCc3ccccc3)o2)o1 [Example 56, 5-(2-(7-Phenylheptanoyl)oxazol-5-yl)furan-2-carboxylic acid]"

# Test system: thermal nociception
# Test: not given
# Conditions: rats; WO 04/033652; cited from earlier work
# Remark: another data set of the same source
row,SMILES,analgesic activity in the tail emersion test
1,O=C(CCCCCCc1ccccc1)c1ncc(-c2ccccn2)o1 [OL-135],analgesic activity

# Target: T3, FAAH
# Test: not given
# Conditions: reported; cited from earlier work
row,SMILES,inhibition of FAAH
1,O=C(CCCCCCc1ccccc1)c1ncc(-c2ccccn2)o1 [OL-135],potent inhibitor

# Test system: not listed separately
# Test: Solubility determination in water
# Assay type: physicochemical
# Conditions: thermodynamic from solid; in water at 5, 1 and 0.1 mg/mL; pH of resulting solutions 7-8.5
# Protocol: Physical Chemical Properties
# Solubility determinations were made by mixing the test compound in water at 5 mg/mL, 1 mg/mL, and 0.1 mg/mL concentrations. The pH of the resulting solutions was 7-8.5.
row,solubility,SMILES
1,< 100 µg/mL,"O=C(CCCCCCc1ccccc1)c1ncc(-c2ccccn2)o1 [Comp. Ex. 1, 7-Phenyl-1-(5-pyridin-2-yl-oxazol-2-yl)-heptan-1-one, reference compound]"
2,< 100 µg/mL,"O=C(CCCCCCc1ccccc1)c1ncc(-c2ccco2)o1 [Comp. Ex. 2, 1-(5-Furan-2-yl-oxazol-2-yl)-7-phenyl-heptan-1-one, reference compound]"
3,> 5000 µg/mL,"O=C(O)c1ccc(-c2cnc(C(=O)CCCCCCc3ccccc3)o2)o1 [Example 56, 5-(2-(7-Phenylheptanoyl)oxazol-5-yl)furan-2-carboxylic acid]"
